Laboratory results as given in US20230212121A1 (DAEGU-GYEONGBUK MEDICAL INNOVATION FOUNDATION, priority 2020, published 2023).

Columns and labels:
Format in all cases: cell-based
[1] = target: T1, serotonin transporter (SERT) (Homo sapiens, UniProt P31645); experiment: Serotonin reuptake inhibition, [3H]-5-HT, HEK-293 cells transfected with 5-HT transporter cDNA; settings: for Triple reuptake inhibition (Ratio %) SERT: compound 1 μM, [3H]-5-HT, relative to control without compound = 100%, lower value = more inhibition; for IC50: concentration at which Ratio % is 50%, 6 concentrations 1 nM to 1 μM, read-out: Triple reuptake inhibition (IC50, μM) SERT
T1 construct: expressed in transfected cells; host or cells: HEK-293
T1 sequence (P31645 whole entry, species assumed): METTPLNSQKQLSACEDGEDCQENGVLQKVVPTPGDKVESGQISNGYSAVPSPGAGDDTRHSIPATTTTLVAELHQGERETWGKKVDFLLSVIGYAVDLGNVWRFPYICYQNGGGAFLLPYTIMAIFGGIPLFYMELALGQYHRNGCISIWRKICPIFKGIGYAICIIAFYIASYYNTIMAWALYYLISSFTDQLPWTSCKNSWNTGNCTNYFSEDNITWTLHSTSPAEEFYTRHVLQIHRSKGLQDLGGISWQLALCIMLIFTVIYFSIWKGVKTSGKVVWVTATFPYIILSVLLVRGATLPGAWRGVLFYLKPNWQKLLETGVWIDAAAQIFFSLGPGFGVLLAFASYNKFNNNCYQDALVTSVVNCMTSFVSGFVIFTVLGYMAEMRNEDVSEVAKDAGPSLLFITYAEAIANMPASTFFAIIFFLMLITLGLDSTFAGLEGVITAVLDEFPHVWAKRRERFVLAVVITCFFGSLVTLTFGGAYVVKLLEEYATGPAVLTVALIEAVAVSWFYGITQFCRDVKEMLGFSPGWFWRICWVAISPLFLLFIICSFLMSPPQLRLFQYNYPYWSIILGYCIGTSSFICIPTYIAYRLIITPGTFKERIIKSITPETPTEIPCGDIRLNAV
Procedure, shortened: (§1)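 HEK-293 cells transfected with SERT or NET cDNA were preincubated with compounds in uptake buffer for 15 min at 37 °C, then given [3H]-5-HT or [3H]-NE for 5 min at 37 °C. After ice-cold washes and 1% SDS lysis, retained radioactivity was expressed relative to the untreated control (100%). Screening was at 1 μM; IC50 came from six concentrations (1 nM–1 μM).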

[2] = target: T2, dopamine transporter (DAT) (Homo sapiens, UniProt Q01959); experiment: Dopamine reuptake inhibition, [3H]-DA, HEK-293 cells transfected with dopamine transporter cDNA; settings: for Triple reuptake inhibition (Ratio %) DAT: compound 1 μM, 20-30 nM [3H]-DA, relative to control without compound = 100%, lower value = more inhibition; for IC50: concentration at which Ratio % is 50%, 6 concentrations 1 nM to 1 μM, read-out: Triple reuptake inhibition (IC50, μM) DAT
T2 construct: expressed in transfected cells; host or cells: HEK-293
T2 sequence (Q01959 whole entry, species assumed): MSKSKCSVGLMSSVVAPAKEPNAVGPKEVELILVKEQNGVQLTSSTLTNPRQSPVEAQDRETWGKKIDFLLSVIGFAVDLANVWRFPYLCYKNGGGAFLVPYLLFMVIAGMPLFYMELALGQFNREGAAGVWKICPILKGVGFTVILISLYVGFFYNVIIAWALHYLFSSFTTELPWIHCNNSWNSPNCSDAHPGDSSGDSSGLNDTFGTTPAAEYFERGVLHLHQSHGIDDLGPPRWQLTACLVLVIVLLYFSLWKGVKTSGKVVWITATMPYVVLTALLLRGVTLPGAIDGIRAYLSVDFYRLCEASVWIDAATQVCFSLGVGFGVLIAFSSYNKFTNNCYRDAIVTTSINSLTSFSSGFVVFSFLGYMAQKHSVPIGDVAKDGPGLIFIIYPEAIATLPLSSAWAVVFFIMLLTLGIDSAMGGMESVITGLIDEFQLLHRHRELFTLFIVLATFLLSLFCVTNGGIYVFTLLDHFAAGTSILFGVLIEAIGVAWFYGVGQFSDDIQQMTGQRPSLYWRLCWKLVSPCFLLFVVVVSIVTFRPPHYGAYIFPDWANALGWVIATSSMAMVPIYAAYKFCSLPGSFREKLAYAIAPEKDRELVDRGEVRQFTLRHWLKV
Procedure, shortened: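 Transfected cells were preincubated with compound (1 μM screen) for 15 min at 37 °C, then given 20-30 nM tracer for 5 min at 37 °C, washed ice-cold and lysed in 1% SDS for radioactivity counting. Uptake was expressed as % of untreated control, and IC50 came from six concentrations, 1 nM to 1 μM.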

[3] = target: T3, norepinephrine transporter (NET) (Homo sapiens, UniProt P23975); experiment: Norepinephrine reuptake inhibition, [3H]-NE, HEK-293 cells transfected with NE transporter cDNA; settings: for Triple reuptake inhibition (Ratio %) NET: compound 1 μM, [3H]-NE, relative to control without compound = 100%, lower value = more inhibition; for IC50: concentration at which Ratio % is 50%, 6 concentrations 1 nM to 1 μM, read-out: Triple reuptake inhibition (IC50, μM) NET
T3 construct: expressed in transfected cells; host or cells: HEK-293
T3 sequence (P23975 whole entry, species assumed): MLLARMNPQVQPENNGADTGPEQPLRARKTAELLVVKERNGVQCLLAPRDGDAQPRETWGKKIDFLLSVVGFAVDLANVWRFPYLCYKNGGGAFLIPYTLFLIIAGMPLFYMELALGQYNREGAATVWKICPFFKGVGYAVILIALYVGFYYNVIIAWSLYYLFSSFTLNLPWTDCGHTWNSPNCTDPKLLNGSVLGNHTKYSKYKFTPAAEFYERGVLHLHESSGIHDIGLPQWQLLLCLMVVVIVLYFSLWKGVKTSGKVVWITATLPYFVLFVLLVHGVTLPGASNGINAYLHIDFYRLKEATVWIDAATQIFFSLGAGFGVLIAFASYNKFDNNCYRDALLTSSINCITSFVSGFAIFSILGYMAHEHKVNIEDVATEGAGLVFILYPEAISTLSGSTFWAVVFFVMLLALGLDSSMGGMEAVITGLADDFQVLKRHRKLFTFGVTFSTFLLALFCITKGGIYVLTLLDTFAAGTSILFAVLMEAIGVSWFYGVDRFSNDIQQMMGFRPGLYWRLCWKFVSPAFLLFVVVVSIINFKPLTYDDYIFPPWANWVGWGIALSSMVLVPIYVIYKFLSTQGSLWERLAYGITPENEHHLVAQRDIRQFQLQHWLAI
Procedure, shortened: as §1

Row | SMILES | Triple reuptake inhibition (Ratio %) SERT [1] [%] | IC50 [1] [µM] | Triple reuptake inhibition (Ratio %) DAT [2] [%] | IC50 [2] [µM] | Triple reuptake inhibition (Ratio %) NET [3] [%] | IC50 [3] [µM]
1 | CCCCOc1ccc(S(=O)(=O)NCCCN2CCC(Cc3ccc(F)cc3)CC2)cc1 [Example 32, 4-butoxy-N-(3-(4-(4-fluorobenzyl)piperidin-1-yl)propyl)benzenesulfonamide] | 30.80 | 0.386 | 45.64 | 2.14 | 20.42 | 0.749
2 | O=S(=O)(NCCCCN1CCN(CCCc2ccccc2)CC1)c1ccc(-c2ccccc2)cc1 [Example 78, N-(4-(4-(3-phenylpropyl)piperazin-1-yl)butyl)-[1,1′-biphenyl]-4-sulfonamide] | 32.90 | – | 25.52 | – | 44.79 | –
3 | O=S(=O)(NCCCN1CCC(CCCc2ccccc2)CC1)c1ccc(-c2ccccc2)cc1 [Example 75, N-(3-(4-(3-phenylpropyl)piperidin-1-yl)propyl)-[1,1′-biphenyl]-4-sulfonamide] | 61.48 | – | 76.23 | – | 44.79 | –
4 | CCCCOc1ccc(S(=O)(=O)NCCCN2CCC(c3cccc(Cl)c3Cl)CC2)cc1 [Example 33, 4-butoxy-N-(3-(4-(2,3-dichlorophenyl)piperidin-1-yl)propyl)benzenesulfonamide] | 59.74 | – | 66.67 | – | 68.93 | –
5 | O=S(=O)(NCCN1CCN(Cc2ccccc2)CC1)c1cccc2ccccc12 [Example 47, N-(2-(4-benzylpiperazin-1-yl)ethyl)naphthalen-1-sulfonamide] | 49.64 | – | 83.08 | – | 87.27 | –
6 | CCCCOc1ccc(S(=O)(=O)NCCCN2CCC(Cc3ccc(Cl)cc3)CC2)cc1 [Example 28, 4-butoxy-N-(3-(4-(4-chlorobenzyl)piperidin-1-yl)propyl)benzenesulfonamide] | 26.63 | – | 94.53 | – | 64.36 | –
7 | O=S(=O)(NCCCN1CCC(CCCc2ccccc2)CC1)c1ccc(-c2ccc(F)cc2)cc1 [Example 74, 4′-fluoro-N-(3-(4-(3-phenylpropyl)piperidin-1-yl)propyl)-[1,1′-biphenyl]-4-sulfonamide] | 61.48 | – | 76.23 | – | 44.79 | –
8 | CCCCOc1ccc(S(=O)(=O)NCCN2CCC(Cc3ccc(Cl)c(Cl)c3)CC2)cc1 [Example 4, 4-butoxy-N-(2-(4-(3,4-dichlorobenzyl)piperidin-1-yl)ethyl)benzenesulfonamide] | 76.57 | – | 88.71 | – | 80.47 | –
9 | CCCCOc1ccc(S(=O)(=O)NCCCN2CCC(Cc3ccc(Cl)c(Cl)c3)CC2)cc1 [Example 20, 4-butoxy-N-(3-(4-(3,4-dichlorobenzyl)piperidin-1-yl)propyl)benzenesulfonamide] | 40.46 | 0.504 | 56.29 | 2.16 | 30.29 | 0.221
10 | O=S(=O)(NCCN1CCC(c2ccccc2)CC1)c1ccc2ccccc2n1 [Example 45, N-(2-(4-phenylpiperidin-1-yl)ethyl)quinolin-2-sulfonamide] | 56.73 | – | 89.88 | – | 45.04 | –
